Target: T1, CD73 (Homo sapiens, UniProt P21589)
T1 sequence (P21589 27-549): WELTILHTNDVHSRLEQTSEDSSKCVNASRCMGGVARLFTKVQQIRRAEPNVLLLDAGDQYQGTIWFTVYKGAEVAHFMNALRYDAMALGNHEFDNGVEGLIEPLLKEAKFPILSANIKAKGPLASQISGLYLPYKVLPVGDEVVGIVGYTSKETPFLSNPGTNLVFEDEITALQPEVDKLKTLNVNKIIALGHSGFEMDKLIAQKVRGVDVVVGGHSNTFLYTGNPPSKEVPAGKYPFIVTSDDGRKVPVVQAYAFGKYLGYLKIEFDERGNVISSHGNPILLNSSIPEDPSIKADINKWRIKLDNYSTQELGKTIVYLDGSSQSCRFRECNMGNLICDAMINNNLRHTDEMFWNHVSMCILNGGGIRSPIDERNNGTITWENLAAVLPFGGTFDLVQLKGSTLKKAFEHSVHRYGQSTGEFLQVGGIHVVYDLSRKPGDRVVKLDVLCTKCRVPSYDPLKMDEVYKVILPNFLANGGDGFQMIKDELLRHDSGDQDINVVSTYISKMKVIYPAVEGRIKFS
Experiment: Biochemical assay of CD73 inhibition (Malachite Green)
Settings: CD73 0.3208 nM, AMP 15 μM, Tris-HCl pH 7.4, Malachite Green absorbance readout; read-out: CD73_Biochem
Description: Example A1: Biochemical Assay
Assay Reaction Conditions
• Assay Volume: 70 μl • Reaction Volume: 50 μl • CD73: 0.3208 nM • AMP:15 μM • Assay Buffer: 2 5 mM Tris-HCL, pH 7.4, 0.01% Brij-35, 0.01% BSA, 5 mM MgCl2 Assay Procedure:
Made dose titration of testing compounds in assay buffer, 10 points 1/2 log titrations in duplicates starting at 100 μM.
Added 25 µl of CD73 to each well for a final concentration of […].
Incubated at RT for 15 min.
Added 25 µl of AMP to each well for a final concentration of 15 μM.
Incubated at RT for 10 min.
Added […] of Malachite Green Reagent A, incubate at RT for 10 min.
Added […] of Malachite Green Reagent B, incubate at RT for 45 min.
Read the Absorbance on Envision plate reader using excitation filter: Cy5 […].
The ability of the compounds disclosed herein to inhibit CD73 activity was quantified and the respective IC50 values were determined. Table 2 provides the biochemical IC50 values of compounds disclosed herein.

IC50, ≤ 10 nM:
COC[C@@](OC[C@H]1O[C@@H](n2ncc3c(NC4CCCC4)nc(Cl)nc32)[C@H](O)[C@@H]1O)(C(=O)NO)P(=O)(O)O [Example 37, ((S)-2-(((2R,3S,4R,5R)-5-(6-chloro-4-(cyclopentylamino)-1H-pyrazolo[3,4-d]pyrimidin-1-yl)-3,4-dihydroxytetrahydrofuran-2-yl)methoxy)-1-(hydroxyamino)-3-methoxy-1-oxopropan-2-yl)phosphonic acid]
O=P(O)(O)[C@@](CO)(Cc1nn[nH]n1)OC[C@H]1O[C@@H](n2ncc3c(N[C@@H]4CCc5ccccc54)nc(Cl)nc32)[C@H](O)[C@@H]1O [Example 48, ((R)-2-(((2R,3S,4R,5R)-5-(6-chloro-4-(((R)-2,3-dihydro-1H-inden-1-yl)amino)-1H-pyrazolo[3,4-d]pyrimidin-1-yl)-3,4-dihydroxytetrahydrofuran-2-yl)methoxy)-1-hydroxy-3-(2H-tetrazol-5-yl)propan-2-yl)phosphonic acid]
O=P(O)(O)[C@@](CO)(COCc1nn[nH]n1)OC[C@H]1O[C@@H](n2ncc3c(NCC4CCC4)nc(Cl)nc32)[C@H](O)[C@@H]1O [Example 58, ((S)-1-((2H-tetrazol-5-yl)methoxy)-2-(((2R,3S,4R,5R)-5-(6-chloro-4-((cyclobutylmethyl)amino)-1H-pyrazolo[3,4-d]pyrimidin-1-yl)-3,4-dihydroxytetrahydrofuran-2-yl)methoxy)-3-hydroxypropan-2-yl)phosphonic acid]
COCC(CC(=O)NS(C)(=O)=O)(OC[C@H]1O[C@@H](n2ncc3c(NC4CCCC4)nc(Cl)nc32)[C@H](O)[C@@H]1O)P(=O)(O)O (stereo partly drawn) [Example 12, (2-(((2R,3S,4R,5R)-5-(6-chloro-4-(cyclopentylamino)-1H-pyrazolo[3,4-d]pyrimidin-1-yl)-3,4-dihydroxytetrahydrofuran-2-yl)methoxy)-1-methoxy-4-(methylsulfonamido)-4-oxobutan-2-yl)phosphonic acid]
O=P(O)(O)C(CO)(CCCc1nn[nH]n1)OC[C@H]1O[C@@H](n2ncc3c(NC4CCCC4)nc(Cl)nc32)[C@H](O)[C@@H]1O (stereo partly drawn) [Example 5, (2-(((2R,3S,4R,5R)-5-(6-chloro-4-(cyclopentylamino)-1H-pyrazolo[3,4-d]pyrimidin-1-yl)-3,4-dihydroxytetrahydrofuran-2-yl)methoxy)-1-hydroxy-5-(2H-tetrazol-5-yl)pentan-2-yl)phosphonic acid]
O=P(O)(O)[C@@](CO)(Cc1nn[nH]n1)OC[C@H]1O[C@@H](n2ncc3c(NCc4ccccc4Cl)nc(Cl)nc32)[C@H](O)[C@@H]1O (single isomer, unassigned) [Example 3]
O=P(O)(O)[C@](CO)(COCc1nn[nH]n1)OC[C@H]1O[C@@H](n2ncc3c(NC4CCCC4)nc(Cl)nc32)[C@H](O)[C@@H]1O [Example 24, ((R)-1-((2H-tetrazol-5-yl)methoxy)-2-(((2R,3S,4R,5R)-5-(6-chloro-4-(cyclopentylamino)-1H-pyrazolo[3,4-d]pyrimidin-1-yl)-3,4-dihydroxytetrahydrofuran-2-yl)methoxy)-3-hydroxypropan-2-yl)phosphonic acid]
O=P(O)(O)[C@@](CO)(COCc1nn[nH]n1)OC[C@H]1O[C@@H](n2ncc3c(NC4CCC4)nc(Cl)nc32)[C@H](O)[C@@H]1O [Example 55, ((S)-1-((2H-tetrazol-5-yl)methoxy)-2-(((2R,3S,4R,5R)-5-(6-chloro-4-(cyclobutylamino)-1H-pyrazolo[3,4-d]pyrimidin-1-yl)-3,4-dihydroxytetrahydrofuran-2-yl)methoxy)-3-hydroxypropan-2-yl)phosphonic acid]
